For four compounds, NOEL, LD50 and LC50 results are on record in EPA's ToxValDB 9.5 (doi:10.2903/j.efsa.2013.3235).

The test system of one series is Rattus norvegicus. As to conditions: for LD50: acute, mortality.
The subject of a further series is Canidae. The note with it: reproduction developmental; duration: 1 years; Dog Other.
For another series, the system named is Anas platyrhynchos. The note with it: short-term; oral; feed.
The next series has as its system Coturnix japonica. As to conditions: acute; oral; mortality.
Another series deals with Mus musculus. As to conditions: acute; oral; mortality.

The structures appear in SMILES notation. “And” between values parts separate entries of the source, which are not always exact repeats. Equal entries are not always repeated.

With `O=C([O-])[C@H](O)[C@@H](O)[C@H](O)[C@H](O)CO.O=C([O-])[C@H](O)[C@@H](O)[C@H](O)[C@H](O)CO.[Cu+2]` [Copper gluconate], the NOEL with Rattus norvegicus (chronic) worked out at 27 mg/kg-day; in the series on Canidae, 15 mg/kg-day.

The LD50 is the dose at which mortality reaches 50%. A high value points to lower toxicity. For the compound `O.O.[Cu]` [Copper hydroxide (Cu(OH)2)], the 50% lethal dose (LD50) with Rattus norvegicus (F) is 679 mg/kg; with Rattus norvegicus (M) it was 736 mg/kg; with Rattus norvegicus it was 439 mg/kg and 281 mg/kg; in the series with Coturnix japonica, 556 mg/kg; in the series with Colinus virginianus (acute, oral, mortality), 223 mg/kg. For the same compound, the NOEL with Anas platyrhynchos was 216 mg/kg-day and 191 mg/kg-day; in the series on Colinus virginianus (reproduction developmental) it was 5.05 mg/kg-day and 5.12 mg/kg-day; in the series with Colinus virginianus (short-term, oral, diet), 124 mg/kg-day and 135 mg/kg-day.

Turning to `[Cu+].[Cu+].[O-2]` [Cuprous oxide], the LD50 with Rattus norvegicus (oral) is 261 mg/kg; in the series on Coturnix japonica it was 1180 mg/kg. The same compound gave an NOEL with Colinus virginianus (short-term, oral, diet) of 31.9 mg/kg-day.

For the compound `[Cl-].[Cu+2].[Cu+2].[OH-].[OH-].[OH-]` [Dicopper chloride trihydroxide], the LD50 in the series with Rattus norvegicus (F) is 548 mg/kg; in the series with Rattus norvegicus (M) it was 693 mg/kg; in the series on Rattus norvegicus, 1080 mg/kg and 807 mg/kg; in the series with Mus musculus, 171 mg/kg; in the series on Colinus virginianus (acute, oral, mortality), 511 mg/kg. The compound further came in with an LC50 with Colinus virginianus (acute, oral, diet, mortality) of 333 mg/kg-day.
